Assay results: ChEMBL document CHEMBL1201862, “PubChem BioAssay data set” (2004)
Calls of active or inactive are those of the source.

Experiments:
[1] = molecular target: T1, Hexokinase-1 (Homo sapiens, UniProt P19367); assay: hexokinase 1 activators, dose response, selectivity assay for HKDC1 activator project, biochemical (AID 504762); type: functional
T1 sequence (P19367 whole entry): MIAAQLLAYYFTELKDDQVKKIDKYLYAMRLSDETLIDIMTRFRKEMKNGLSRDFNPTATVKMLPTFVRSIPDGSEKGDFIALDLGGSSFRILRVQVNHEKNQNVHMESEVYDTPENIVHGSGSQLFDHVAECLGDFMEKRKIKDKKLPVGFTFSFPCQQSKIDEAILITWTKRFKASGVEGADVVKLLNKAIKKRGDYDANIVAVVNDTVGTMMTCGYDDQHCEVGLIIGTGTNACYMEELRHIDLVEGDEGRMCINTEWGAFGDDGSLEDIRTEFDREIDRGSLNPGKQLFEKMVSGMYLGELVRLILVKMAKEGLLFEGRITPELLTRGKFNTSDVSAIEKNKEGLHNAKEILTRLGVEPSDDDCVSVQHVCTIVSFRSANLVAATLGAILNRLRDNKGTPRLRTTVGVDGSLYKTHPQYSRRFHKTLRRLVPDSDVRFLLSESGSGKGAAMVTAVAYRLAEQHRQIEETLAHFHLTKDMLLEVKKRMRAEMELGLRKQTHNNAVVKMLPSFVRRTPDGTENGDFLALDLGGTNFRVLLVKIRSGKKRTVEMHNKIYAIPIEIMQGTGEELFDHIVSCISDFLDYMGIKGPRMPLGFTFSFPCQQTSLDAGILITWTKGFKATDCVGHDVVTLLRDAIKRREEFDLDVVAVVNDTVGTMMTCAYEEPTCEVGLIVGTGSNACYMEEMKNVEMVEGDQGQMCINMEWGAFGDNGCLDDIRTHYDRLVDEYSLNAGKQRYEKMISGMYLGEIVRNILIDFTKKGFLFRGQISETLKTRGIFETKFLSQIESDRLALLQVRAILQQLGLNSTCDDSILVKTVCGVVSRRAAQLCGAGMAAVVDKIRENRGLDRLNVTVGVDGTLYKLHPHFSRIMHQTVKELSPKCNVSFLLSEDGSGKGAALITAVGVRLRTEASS

[2] = molecular target: T2, Hexokinase HKDC1 (Homo sapiens, UniProt Q2TB90); assay: HKDC1 hexokinase activators, dose response, biochemical, W721R variant (AID 504730); type: functional
T2 sequence (Q2TB90 whole entry): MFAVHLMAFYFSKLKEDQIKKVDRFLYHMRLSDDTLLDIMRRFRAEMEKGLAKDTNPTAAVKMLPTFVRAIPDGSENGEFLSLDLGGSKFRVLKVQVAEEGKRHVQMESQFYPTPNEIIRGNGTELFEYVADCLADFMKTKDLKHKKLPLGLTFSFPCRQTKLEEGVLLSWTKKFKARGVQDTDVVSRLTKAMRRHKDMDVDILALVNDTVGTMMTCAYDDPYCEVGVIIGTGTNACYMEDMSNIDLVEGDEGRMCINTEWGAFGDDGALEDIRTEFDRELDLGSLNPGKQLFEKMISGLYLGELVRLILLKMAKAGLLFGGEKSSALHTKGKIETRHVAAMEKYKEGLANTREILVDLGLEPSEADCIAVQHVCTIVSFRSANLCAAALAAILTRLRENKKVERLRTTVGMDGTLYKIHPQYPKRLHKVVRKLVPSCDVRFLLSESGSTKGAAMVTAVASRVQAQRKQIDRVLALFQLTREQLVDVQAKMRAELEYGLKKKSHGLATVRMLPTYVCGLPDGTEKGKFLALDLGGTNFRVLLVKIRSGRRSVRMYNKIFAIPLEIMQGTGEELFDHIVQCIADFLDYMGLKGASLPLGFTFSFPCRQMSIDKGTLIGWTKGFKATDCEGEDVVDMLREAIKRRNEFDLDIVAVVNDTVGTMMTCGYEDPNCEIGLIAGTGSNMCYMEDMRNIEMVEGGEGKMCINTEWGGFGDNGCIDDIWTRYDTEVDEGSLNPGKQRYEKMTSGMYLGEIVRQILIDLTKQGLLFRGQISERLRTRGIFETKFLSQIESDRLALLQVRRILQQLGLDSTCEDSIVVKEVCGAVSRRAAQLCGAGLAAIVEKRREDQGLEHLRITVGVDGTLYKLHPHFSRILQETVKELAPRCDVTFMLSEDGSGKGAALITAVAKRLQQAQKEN

[3] = molecular target: T3, Lysine-specific demethylase 4C (Homo sapiens, UniProt Q9H3R0); assay: GASC-1 (JMJD2C) histone demethylase inhibitors, dose response, biochemical, DELFIA europium, cherry-picked samples (AID 488835); type: functional
T3 sequence (Q9H3R0 whole entry): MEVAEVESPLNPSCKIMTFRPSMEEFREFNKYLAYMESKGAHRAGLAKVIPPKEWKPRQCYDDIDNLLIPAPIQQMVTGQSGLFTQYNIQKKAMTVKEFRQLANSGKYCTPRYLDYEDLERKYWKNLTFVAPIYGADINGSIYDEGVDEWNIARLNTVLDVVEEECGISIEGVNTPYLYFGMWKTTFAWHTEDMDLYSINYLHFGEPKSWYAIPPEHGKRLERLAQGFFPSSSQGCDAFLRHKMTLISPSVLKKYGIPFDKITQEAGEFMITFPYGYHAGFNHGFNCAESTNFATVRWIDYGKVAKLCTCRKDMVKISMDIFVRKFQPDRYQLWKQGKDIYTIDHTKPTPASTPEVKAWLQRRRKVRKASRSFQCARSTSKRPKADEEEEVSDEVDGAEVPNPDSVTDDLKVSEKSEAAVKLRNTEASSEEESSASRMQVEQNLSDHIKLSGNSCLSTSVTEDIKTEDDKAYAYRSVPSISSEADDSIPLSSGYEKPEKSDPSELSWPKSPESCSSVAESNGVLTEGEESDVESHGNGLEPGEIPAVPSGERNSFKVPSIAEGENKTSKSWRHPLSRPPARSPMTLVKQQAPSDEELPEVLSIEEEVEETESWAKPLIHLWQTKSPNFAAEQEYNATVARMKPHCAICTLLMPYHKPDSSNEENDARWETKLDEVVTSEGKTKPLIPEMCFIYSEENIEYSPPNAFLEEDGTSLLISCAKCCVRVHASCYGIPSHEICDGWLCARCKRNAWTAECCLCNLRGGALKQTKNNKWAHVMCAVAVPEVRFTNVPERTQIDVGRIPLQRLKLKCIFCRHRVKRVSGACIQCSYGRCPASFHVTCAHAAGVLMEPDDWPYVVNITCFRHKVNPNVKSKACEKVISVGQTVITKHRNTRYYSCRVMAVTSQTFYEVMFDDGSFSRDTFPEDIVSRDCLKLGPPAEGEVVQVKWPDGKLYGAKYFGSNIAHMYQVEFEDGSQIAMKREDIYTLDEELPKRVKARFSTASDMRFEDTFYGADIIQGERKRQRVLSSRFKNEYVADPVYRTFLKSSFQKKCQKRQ

[4] = molecular target: T4, Ubiquitin-conjugating enzyme E2 N (Homo sapiens, UniProt P61088); type: functional
T4 sequence (P61088 whole entry): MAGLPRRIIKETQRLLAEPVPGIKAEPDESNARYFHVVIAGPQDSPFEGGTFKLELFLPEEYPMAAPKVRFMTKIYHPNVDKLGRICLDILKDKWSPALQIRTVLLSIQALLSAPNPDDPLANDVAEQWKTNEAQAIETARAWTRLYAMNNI

[5] = molecular target: T5, Bcl-2-related protein A1 (Mus musculus, UniProt Q07440); type: functional;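 also: confirmatory dose–response counterscreen on Bfl-1, used to check hits from a UBC13 polyubiquitin inhibitor campaign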
T5 sequence (Q07440 whole entry): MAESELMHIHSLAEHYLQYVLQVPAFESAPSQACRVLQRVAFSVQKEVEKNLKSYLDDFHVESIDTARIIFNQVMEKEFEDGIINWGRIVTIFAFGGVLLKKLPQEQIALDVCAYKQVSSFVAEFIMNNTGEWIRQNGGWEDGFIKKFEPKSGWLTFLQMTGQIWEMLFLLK

[6] = molecular target: T4, Ubiquitin-conjugating enzyme E2 N; type: functional; remark: listed apart in the source
[7] = HepG2 cell cytotoxicity, dose response, cytotoxicity control for Shn3 inhibitor project, CellTiter-Glo, cherry-picked (AID 624134); type: functional, cell-based
[8] = Shn3 3'UTR reporter inhibitors, dose response, cell-based, Clone20 osteoblasts, firefly luciferase, cherry-picked (AID 624132); type: functional;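 also: firefly luciferase luminescence from reporter carrying the Shn3 3'UTR in osteoblasts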
[9] = control 3'UTR Renilla luciferase suppression, dose response, counter-screen for Shn3 inhibitor project, cell-based, Clone20-Shn3RL, cherry-picked (AID 624133); type: functional
[10] = system: INS1; assay: beta cell apoptosis inhibitors, cytokine rescue, dose response, luminescence, retest (AID 449756); type: functional, cell-based; details: Rattus norvegicus;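 also: cell death triggered by IL-1 beta plus TNF-alpha plus IFN-gamma mixture; protective hits raise ATP signal compared with cytokine alone wells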
[11] = inhibitors of firefly luciferase expression or activity, dose response, H4 neuroglioma cells, luminescence (AID 1990); type: functional, cell-based
[12] = inhibitors of SNCA 5'UTR-driven reporter translation, confirmation, H4 neuroglioma cells, luminescence (AID 1988); type: functional, cell-based
[13] = Luminescence Cell-Based Dose Response HTS to Identify Inhibitors of 5'UTR Stem-Loop Driven Prion Protein mRNA Translation in H4 Neuroglioblastoma Cells. [Related pubchem assays: 1827 (Project Summary), 1813 (Primary HTS)]; type: functional
[14] = molecular target: SUMO-activating enzyme (Homo sapiens, UniProt Q9UBT2); assay: SUMOylation inhibitor hit validation, confirmation, SUMOylation inhibitor project, biochemical, AlphaScreen (AID 2018); type: functional
Chain of SUMO-activating enzyme (Q9UBE0 whole entry): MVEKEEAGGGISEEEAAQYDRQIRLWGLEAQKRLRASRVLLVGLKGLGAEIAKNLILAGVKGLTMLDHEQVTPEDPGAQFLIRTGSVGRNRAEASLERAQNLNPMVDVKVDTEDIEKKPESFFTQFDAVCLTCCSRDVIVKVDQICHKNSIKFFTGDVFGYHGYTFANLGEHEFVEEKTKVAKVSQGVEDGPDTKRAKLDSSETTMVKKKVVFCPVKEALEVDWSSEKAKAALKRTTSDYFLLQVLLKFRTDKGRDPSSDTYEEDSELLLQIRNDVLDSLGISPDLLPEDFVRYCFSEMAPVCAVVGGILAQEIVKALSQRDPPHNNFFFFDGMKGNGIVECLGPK
Chain of SUMO-activating enzyme (Q9UBT2 whole entry): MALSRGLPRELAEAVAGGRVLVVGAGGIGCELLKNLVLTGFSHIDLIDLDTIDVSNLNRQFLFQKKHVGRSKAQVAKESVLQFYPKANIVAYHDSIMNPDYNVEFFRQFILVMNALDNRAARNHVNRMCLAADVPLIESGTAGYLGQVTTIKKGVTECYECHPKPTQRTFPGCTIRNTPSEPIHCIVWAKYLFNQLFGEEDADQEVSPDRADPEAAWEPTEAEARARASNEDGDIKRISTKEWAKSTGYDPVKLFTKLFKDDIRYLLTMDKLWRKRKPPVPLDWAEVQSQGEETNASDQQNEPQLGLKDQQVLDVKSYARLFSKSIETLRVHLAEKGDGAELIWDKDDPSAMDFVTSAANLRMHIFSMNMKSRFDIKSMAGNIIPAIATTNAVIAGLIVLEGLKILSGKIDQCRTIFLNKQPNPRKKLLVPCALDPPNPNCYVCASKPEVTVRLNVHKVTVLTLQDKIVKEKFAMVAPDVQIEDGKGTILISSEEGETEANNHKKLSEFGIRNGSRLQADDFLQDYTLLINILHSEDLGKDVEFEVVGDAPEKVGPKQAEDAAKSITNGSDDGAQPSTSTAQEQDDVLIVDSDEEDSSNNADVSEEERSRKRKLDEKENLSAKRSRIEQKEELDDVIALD

[15] = system: Vero; assay: host cell cytotoxicity of antiviral hits, dose response, cytotoxicity control for West Nile virus antiviral project, secondary assay (AID 1650); type: functional; details: Chlorocebus sabaeus
[16] = molecular target: T6, Short transient receptor potential channel 4 (Mus musculus, UniProt Q9QUQ5); assay: mouse TRPC4 channel activators, dose response, cell-based, HEK293 TRPC4/mu-opioid, Fluo-4 calcium (AID 434937); type: functional
T6 sequence (Q9QUQ5 whole entry): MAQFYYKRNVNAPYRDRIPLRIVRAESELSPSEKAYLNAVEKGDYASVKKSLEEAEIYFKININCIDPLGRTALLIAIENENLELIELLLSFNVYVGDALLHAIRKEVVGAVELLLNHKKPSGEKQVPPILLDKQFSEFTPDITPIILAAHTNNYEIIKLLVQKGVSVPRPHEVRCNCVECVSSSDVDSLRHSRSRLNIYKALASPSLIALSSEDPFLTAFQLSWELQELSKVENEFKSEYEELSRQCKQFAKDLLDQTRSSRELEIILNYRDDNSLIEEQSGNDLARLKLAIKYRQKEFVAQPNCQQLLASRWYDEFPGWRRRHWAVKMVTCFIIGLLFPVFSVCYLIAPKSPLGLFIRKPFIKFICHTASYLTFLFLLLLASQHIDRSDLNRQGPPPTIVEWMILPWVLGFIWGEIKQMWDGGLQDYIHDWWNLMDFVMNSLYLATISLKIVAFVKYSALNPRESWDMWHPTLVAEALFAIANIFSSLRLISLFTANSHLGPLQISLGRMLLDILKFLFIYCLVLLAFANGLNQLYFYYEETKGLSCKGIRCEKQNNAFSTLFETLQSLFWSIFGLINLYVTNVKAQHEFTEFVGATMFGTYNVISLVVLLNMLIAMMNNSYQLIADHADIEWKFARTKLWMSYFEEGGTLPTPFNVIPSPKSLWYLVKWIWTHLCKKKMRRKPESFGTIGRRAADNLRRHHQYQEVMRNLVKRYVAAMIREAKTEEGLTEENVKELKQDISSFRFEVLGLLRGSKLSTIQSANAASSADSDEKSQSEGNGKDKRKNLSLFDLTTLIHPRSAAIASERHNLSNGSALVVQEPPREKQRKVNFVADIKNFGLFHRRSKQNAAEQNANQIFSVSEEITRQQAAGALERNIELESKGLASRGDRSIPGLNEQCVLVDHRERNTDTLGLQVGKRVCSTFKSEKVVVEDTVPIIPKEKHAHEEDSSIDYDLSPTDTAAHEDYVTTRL

[17] = growth suppression of beta-catenin-knockout colon cells, dose response, cell-based, HCT116, human colon tumor (AID 1045); type: functional;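 also: HCT116 colon tumor cells with beta catenin knocked out; cells exposed to compound for 60 hours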
[18] = growth suppression of PTEN-null colon cells, dose response, cell-based, HCT116 PTEN knockout (AID 1047); type: functional;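 also: HCT116 colon tumor cells with PTEN knocked out; cells exposed to compound for 60 hours before readout; potency for loss of cell viability measured by luminescence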
[19] = molecular target: Voltage-dependent T-type calcium channel subunit alpha-1H (Homo sapiens, UniProt O95180); type: functional;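 also: channel activity triggered by adding a high calcium stimulation buffer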
Chain of Voltage-dependent T-type calcium channel subunit alpha-1H (O95180 whole entry): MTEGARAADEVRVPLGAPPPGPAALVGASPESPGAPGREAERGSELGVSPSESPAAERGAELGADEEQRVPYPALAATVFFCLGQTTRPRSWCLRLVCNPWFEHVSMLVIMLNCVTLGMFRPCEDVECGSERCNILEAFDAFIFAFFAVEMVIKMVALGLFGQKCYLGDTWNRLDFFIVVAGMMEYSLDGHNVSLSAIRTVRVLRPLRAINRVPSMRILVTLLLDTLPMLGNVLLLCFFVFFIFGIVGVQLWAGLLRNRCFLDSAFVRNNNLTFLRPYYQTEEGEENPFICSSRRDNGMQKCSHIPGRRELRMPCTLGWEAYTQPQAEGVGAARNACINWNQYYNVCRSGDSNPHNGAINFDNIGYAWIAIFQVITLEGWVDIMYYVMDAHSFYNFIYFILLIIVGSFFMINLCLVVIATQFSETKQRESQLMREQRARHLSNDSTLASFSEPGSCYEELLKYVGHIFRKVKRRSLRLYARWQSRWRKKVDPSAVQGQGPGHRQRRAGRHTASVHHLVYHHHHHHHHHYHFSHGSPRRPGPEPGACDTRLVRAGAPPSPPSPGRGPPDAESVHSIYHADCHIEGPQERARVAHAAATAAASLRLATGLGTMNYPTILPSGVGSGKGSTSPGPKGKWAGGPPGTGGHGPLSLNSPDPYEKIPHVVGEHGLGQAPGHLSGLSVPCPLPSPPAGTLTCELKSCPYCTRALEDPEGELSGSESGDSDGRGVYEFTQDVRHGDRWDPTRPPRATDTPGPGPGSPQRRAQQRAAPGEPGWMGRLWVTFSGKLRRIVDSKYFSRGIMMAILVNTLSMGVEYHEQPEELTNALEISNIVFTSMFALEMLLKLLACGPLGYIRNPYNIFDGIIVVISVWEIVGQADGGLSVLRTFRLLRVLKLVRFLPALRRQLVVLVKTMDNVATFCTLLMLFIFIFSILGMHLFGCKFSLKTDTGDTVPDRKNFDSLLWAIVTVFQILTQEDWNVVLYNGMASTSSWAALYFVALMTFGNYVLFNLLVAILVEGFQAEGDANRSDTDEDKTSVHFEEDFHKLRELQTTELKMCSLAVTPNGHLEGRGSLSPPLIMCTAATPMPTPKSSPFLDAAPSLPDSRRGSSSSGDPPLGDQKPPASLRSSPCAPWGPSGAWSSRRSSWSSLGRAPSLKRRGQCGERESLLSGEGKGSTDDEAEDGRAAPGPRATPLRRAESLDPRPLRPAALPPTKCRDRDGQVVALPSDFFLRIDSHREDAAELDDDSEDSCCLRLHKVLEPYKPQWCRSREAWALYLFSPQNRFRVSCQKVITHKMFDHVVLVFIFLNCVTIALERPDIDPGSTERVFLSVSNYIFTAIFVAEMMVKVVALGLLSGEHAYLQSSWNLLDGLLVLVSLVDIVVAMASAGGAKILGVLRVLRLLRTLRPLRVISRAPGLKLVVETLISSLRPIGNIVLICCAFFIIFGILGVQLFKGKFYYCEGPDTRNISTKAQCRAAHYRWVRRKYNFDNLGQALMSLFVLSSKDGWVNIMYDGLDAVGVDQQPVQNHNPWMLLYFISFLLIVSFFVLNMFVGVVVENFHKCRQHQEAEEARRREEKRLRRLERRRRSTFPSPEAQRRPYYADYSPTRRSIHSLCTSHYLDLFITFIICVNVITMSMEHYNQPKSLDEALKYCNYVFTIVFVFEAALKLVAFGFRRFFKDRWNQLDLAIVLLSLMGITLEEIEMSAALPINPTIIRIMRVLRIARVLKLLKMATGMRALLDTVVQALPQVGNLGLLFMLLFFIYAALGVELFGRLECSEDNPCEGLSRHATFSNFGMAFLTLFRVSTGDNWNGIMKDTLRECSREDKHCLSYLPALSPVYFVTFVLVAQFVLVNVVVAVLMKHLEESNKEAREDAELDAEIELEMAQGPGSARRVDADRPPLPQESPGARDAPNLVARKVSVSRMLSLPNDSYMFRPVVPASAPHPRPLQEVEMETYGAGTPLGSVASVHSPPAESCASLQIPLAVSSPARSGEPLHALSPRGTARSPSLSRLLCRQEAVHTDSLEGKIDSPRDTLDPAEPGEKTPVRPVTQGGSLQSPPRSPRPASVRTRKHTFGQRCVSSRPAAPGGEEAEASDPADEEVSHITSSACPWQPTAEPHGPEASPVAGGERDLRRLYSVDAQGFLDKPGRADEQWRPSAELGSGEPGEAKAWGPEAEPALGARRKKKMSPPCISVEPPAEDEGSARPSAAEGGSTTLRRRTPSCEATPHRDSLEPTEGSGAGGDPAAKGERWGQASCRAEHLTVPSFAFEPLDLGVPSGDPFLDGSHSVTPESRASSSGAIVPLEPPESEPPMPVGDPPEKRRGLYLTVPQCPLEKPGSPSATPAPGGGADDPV

[20] = molecular target: T6, Short transient receptor potential channel 4; assay: mouse TRPC4 channel inhibitors, dose response, cell-based, HEK293 TRPC4/mu-opioid, Fluo-4 calcium (AID 434942); type: functional;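 also: potency of inhibitors blocking the TRPC4 calcium response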

CC(C)(C)c1ccc(-c2csc(NNC3=NCCCCC3)n2)cc1
EC50 [1]: 47.4 µM (inactive)
EC50 [2]: 38.1 µM (inactive)
AC50 [3]: 22.3 µM (active)

CCOc1ccc(N(C(=O)c2snc(C(N)=O)c2N)C(CC)C(=O)NC2CCCC2)cc1 (stereo unspecified)
IC50 [4]: 12.3 µM (active)
IC50 [5]: > 20 µM (inactive)
IC50 [6]: 10.1 µM (active)

C=CCn1nc([N+](=O)[O-])nc1Sc1cccc2cccnc12
AC50 [7]: 30.3 µM (active)
AC50 [8]: 10.7 µM (active)
AC50 [9]: 7.05 µM (active)
EC50 [1]: > 80 µM (inactive)
AC50 [10]: 1.24 µM (active)
EC50 [2]: > 80 µM (inactive)

CCC(=O)NC(=S)NNC(=O)c1ccc(NC(=O)c2ccccc2)cc1
IC50 [4]: 3.81 µM (active)
IC50 [5]: > 20 µM (inactive)
IC50 [6]: 11.4 µM (active)

COc1ccc(NC(=O)C(=O)N/N=C\c2ccc(CNC(=O)C(=O)Nc3ccc(C)c(C)c3)o2)c(OC)c1
EC50 [11]: 6.59 µM (active)
EC50 [12]: 5.4 µM (active)
EC50 [13]: 9.34 µM (active)
IC50 [14]: 30.4 µM (active)
CC50 [15]: 15.1 µM (active)

O=C(CN1CCN(c2ncc(C(F)(F)F)cc2Cl)CC1)N1CCN(c2ncc(C(F)(F)F)cc2Cl)CC1
EC50 [16]: 3.35 µM (active)
EC50 [17]: 49.1 µM (active)
EC50 [18]: 48.4 µM (active)
EC50 [19]: 8.68 µM (active)

Clc1ccc(COn2c(-c3ccc(Cl)cc3Cl)nc3ncccc32)cc1
EC50 [16]: 4.22 µM (active)
EC50 [20]: 1.33 µM (active)
